Experimental data taken from ChEMBL document CHEMBL3124756, “Hepatitis C virus NS5A replication complex inhibitors. Part 6: Discovery of a novel and highly potent biarylimidazole chemotype with inhibitory activity toward genotypes 1a and 1b replicons” (J Med Chem, 2014).

Key:
[1] = Cytotoxicity against human HuH7 cells infected with HCV genotype 1b after 72 hrs by Alamar blue assay; type: cell-based, Huh-7
[2] = system: Hepatitis C virus; test: Antiviral activity against Hepatitis C virus genotype 1b infected in human HuH7 cells after 72 hrs by FRET assay; type: functional, organism-based, Hepacivirus hominis; conditions: Huh-7, 72 h
[3] = system: Hepatitis C virus; test: Antiviral activity against Hepatitis C virus genotype 1a infected in human HuH7 cells after 5 days by ELISA; type: functional, organism-based, Hepacivirus hominis; conditions: subtype 1a, Huh-7, 120 h
[4] = system: Bovine viral diarrhea virus 1; test: Antiviral activity against Bovine viral diarrhea virus infected in human HuH7 cells by luciferase reporter gene assay; type: functional, organism-based; conditions: Bovine viral diarrhea virus isolates and strains, Huh-7
[5] = Metabolic stability in rat microsomes assessed as compound remaining after 10 mins; type: ADME, microsome; conditions: liver microsomes, read-out: Stability
[6] = system: Hepatitis C virus; test: Antiviral activity against Hepatitis C virus genotype 1b expressing […] resistant-mutant infected in human HuH7 cells after 72 hrs by FRET assay; type: functional, organism-based, Hepacivirus hominis; conditions: Huh-7, 72 h
[7] = Permeability of the compound at pH 7.4 by PAMPA; type: physicochemical; conditions: read-out: permeability
[8] = system: Hepatitis C virus; test: Antiviral activity against Hepatitis C virus genotype 5a infected in human HuH7 cells by FRET assay; type: functional, organism-based, Hepacivirus hominis; conditions: Huh-7
[9] = Metabolic stability in human liver microsomes assessed as compound remaining after 10 mins; type: ADME; conditions: read-out: Stability
[10] = Plasma concentration in rat at 5 mg/kg, po after 0.17 hrs; type: ADME, organism-based; design: dose 5 mg/kg, route oral
[11] = system: Hepatitis C virus; test: Antiviral activity against Hepatitis C virus genotype 3a infected in human HuH7 cells by FRET assay; type: functional, organism-based, Hepacivirus hominis; conditions: Huh-7
[12] = Clearance in rat at 2 mg/kg, iv; type: ADME, organism-based; design: dose 2 mg/kg, route intravenous; conditions: in vivo
[13] = system: Hepatitis C virus; test: Antiviral activity against Hepatitis C virus genotype 2a J6 infected in human HuH7 cells by FRET assay; type: functional, organism-based, Hepacivirus hominis; conditions: subtype 2a J6, Huh-7
[14] = system: Hepatitis C virus; test: Antiviral activity against Hepatitis C virus genotype 3a YH infected in human HuH7 cells by FRET assay; type: functional, organism-based, Hepacivirus hominis; conditions: subtype 3a YH, Huh-7
[15] = system: Hepatitis C virus; test: Antiviral activity against Hepatitis C virus genotype 4a infected in human HuH7 cells by FRET assay; type: functional, organism-based, Hepacivirus hominis; conditions: Huh-7
[16] = Drug metabolism in assay medium assessed as parent compound level at 5 uM after 48 hrs by LC/MS analysis; type: physicochemical
[17] = system: Salmonella typhimurium; test: Mutagenic activity in Salmonella typhimurium TA 100 at 1 to 1000 ug/well after 48 hrs by Ames test in presence of rat liver S9 fraction; type: toxicity, organism-based; conditions: salmonella enterica subsp. enterica serovar typhimurium, s9, 48 h
[18] = system: Hepatitis C virus; test: Antiviral activity against Hepatitis C virus genotype 1a infected in human HuH7 cells after 72 hrs by FRET assay; type: functional, organism-based, Hepacivirus hominis; conditions: subtype 1a, Huh-7, 72 h
[19] = system: Salmonella typhimurium; test: Mutagenic activity in Salmonella typhimurium TA 100 at 1 to 1000 ug/well after 48 hrs by Ames test; type: toxicity, organism-based; conditions: salmonella enterica subsp. enterica serovar typhimurium
[20] = AUC (24 hrs) in rat at 5 mg/kg, po; type: ADME, organism-based; design: time < 24 hr, dose 5 mg/kg, route oral; conditions: plasma
[21] = Oral bioavailability in rat at 5 mg/kg; type: ADME, organism-based; conditions: in vivo
[22] = AUC (4 hrs) in rat at 5 mg/kg, po; type: ADME, organism-based; design: time < 4 hr, dose 5 mg/kg, route oral; conditions: plasma
[23] = Efflux ratio of permeability from basolateral to apical side over apical to basolateral side in human Caco2 cells; type: ADME, cell-based; conditions: Caco-2

| Structure (SMILES) | EC50 [2] [nM] | EC50 [3] [nM] | EC50 [4] [nM] | EC50 [18] [nM] | CC50 at 72 h [1] [nM] | also measured |
| --- | --- | --- | --- | --- | --- | --- |
| CN(C)[C@@H](C(=O)N1CCC[C@H]1c1ncc(-c2ccc(-c3ccc(-c4cnc([C@@H]5CCCN5C(=O)[C@@H](c5ccccc5)N(C)C)[nH]4)cc3)cc2)[nH]1)c1ccccc1 | 0.042 | 0.037 | 2350 |  | 5860 | remaining at 10 min [5]: 100%; EC50 [6]: 233 nM; Papp [7]: 7 nm/s; EC50 [8]: 0.032 nM; remaining at 10 min [9]: 100%; concentration at 0.17 h [10]: 0.02 µM; EC50 [11]: 0.015 nM; clearance [12]: 1.04 L/h/kg; EC50 [13]: 0.032 nM; EC50 [14]: 3.8 nM; EC50 [15]: 0.013 nM |
| COC(=O)N[C@@H](C(=O)N1CCC[C@H]1c1ncc(-c2ccc(-c3ccc(-c4cnc([C@@H]5CCCN5C(=O)[C@H](NC(=O)OC)c5ccccc5)[nH]4)cc3)cc2)[nH]1)c1ccccc1 | 0.0067 | 0.028 | 1460 |  | > 10000 | remaining at 10 min [5]: 100%; EC50 [6]: 166 nM; EC50 [8]: 0.014 nM; remaining at 10 min [9]: 100%; EC50 [11]: 0.004 nM; clearance [12]: 0.666 L/h/kg; EC50 [13]: 0.023 nM; EC50 [14]: 4.4 nM; EC50 [15]: 0.0057 nM |
| CN(C)[C@@H](C(=O)N1CCC[C@H]1c1nc2ccc(C#Cc3ccc4nc([C@@H]5CCCN5C(=O)[C@@H](c5ccccc5)N(C)C)oc4c3)cc2o1)c1ccccc1 | < 4.6 | > 1000 | 390 |  | 2720 | EC50 [6]: > 1000 nM |
| Nc1ccc(/C=C/c2ccc(NC(=O)[C@@H]3CCCN3C(=O)Cc3ccccc3)cc2)cc1 |  |  |  |  |  | Activity [17]: Toxic |
| O=C(Nc1ccc(-c2cnc(-c3ccc(NC(=O)[C@@H]4CCCN4C(=O)Cc4ccccc4)cc3)o2)cc1)[C@@H]1CCCN1C(=O)Cc1ccccc1 | 429 |  |  |  |  |  |
| COC(=O)N[C@@H](C(=O)N1CCC[C@H]1c1ncc(-c2ccc(-c3ccc(-c4cnc([C@@H]5CCCN5C(=O)OC(C)(C)C)[nH]4)cc3)cc2)[nH]1)c1ccccc1 | 0.011 |  | 110 | 203 | > 10000 |  |
| CN(C)[C@H](C(=O)N1CCC[C@H]1c1ncc(-c2ccc(-c3ccc(-c4cnc([C@@H]5CCCN5C(=O)[C@H](c5ccccc5)N(C)C)[nH]4)cc3)cc2)[nH]1)c1ccccc1 | 5.4 | 704 | 1270 |  | 3610 |  |
| O=C(Nc1ccc(/C=C/c2ccc(NC(=O)[C@@H]3CCCN3C(=O)Cc3ccccc3)cc2)cc1)[C@@H]1CCCN1C(=O)Cc1ccccc1 |  |  |  |  |  | Activity [19]: Non-toxic; Activity [17]: Non-toxic |
| CC(C)(C)OC(=O)N1CCC[C@H]1c1ncc(-c2ccc(-c3ccc(-c4cnc([C@@H]5CCCN5C(=O)OC(C)(C)C)[nH]4)cc3)cc2)[nH]1 | 102 |  | 2760 | 901 | 9630 |  |
| O=C(Nc1ccc(C#Cc2ccc(NC(=O)[C@@H]3CCCN3C(=O)Cc3ccccc3)cc2)cc1)[C@@H]1CCCN1C(=O)Cc1ccccc1 | 5.6 |  | > 10000 | > 400 | > 10000 |  |
| COC(=O)N[C@@H](C(=O)N1CCC[C@H]1c1nc2cc(C#Cc3ccc4[nH]c([C@@H]5CCCN5C(=O)[C@H](NC(=O)OC)c5ccccc5)nc4c3)ccc2[nH]1)c1ccccc1 | 0.055 | 108 | > 10000 |  | > 10000 | AUC at 24 h [20]: 539 nM·h; bioavailability [21]: < 1%; AUC at 4 h [22]: 466 nM·h; EC50 [6]: > 3330 nM; efflux ratio [23]: ≥ 7.2; clearance [12]: 0.066 L/h/kg |
| CN(C)[C@@H](C(=O)N1CCC[C@H]1C(=O)Nc1cccc(-c2ncc(-c3ccc4nc([C@@H]5CCCN5C(=O)[C@@H](c5ccccc5)N(C)C)[nH]c4c3)o2)c1)c1ccccc1 | 0.14 | 3.5 | 3090 |  | 8610 | EC50 [6]: > 1000 nM |

More lines, main results first:

| EC50 [2] [nM] | EC50 [3] [nM] | EC50 [4] [nM] | EC50 [18] [nM] | Structure (SMILES) | CC50 at 72 h [1] [nM] | also measured |
| --- | --- | --- | --- | --- | --- | --- |
| < 4.6 | 973 | 4960 |  | CN(C)[C@@H](C(=O)N1CCC[C@H]1c1nc2cc(-c3cnc(-c4ccc5[nH]c([C@@H]6CCCN6C(=O)[C@@H](c6ccccc6)N(C)C)nc5c4)o3)ccc2[nH]1)c1ccccc1 | > 10000 |  |
| 0.077 | 251 | > 370 |  | CN(C)C(C(=O)N1CCC[C@H]1C(=O)Nc1ccc(-c2ncc(-c3ccc4[nH]c([C@@H]5CCCN5C(=O)[C@@H](c5ccccc5)N(C)C)nc4c3)o2)cc1)c1ccccc1 (single isomer, unassigned) | > 10000 |  |
| > 1000 | > 1000 | 7980 |  | O=C(Cc1ccccc1)N1CCC[C@H]1c1nc2ccc(C#Cc3ccc4nc([C@@H]5CCCN5C(=O)Cc5ccccc5)oc4c3)cc2o1 | > 10000 | Drug metabolism [16]: Active |
| > 1000 | > 1000 | 1390 |  | CN(C)[C@@H](C(=O)N1CCC[C@H]1c1nc2cc(C#Cc3ccc4oc([C@@H]5CCCN5C(=O)[C@@H](c5ccccc5)N(C)C)nc4c3)ccc2o1)c1ccccc1 | 4450 |  |
| 0.075 | 232 | 3420 |  | CN(C)[C@@H](C(=O)N1CCC[C@H]1c1nc2cc(C#Cc3ccc4[nH]c([C@@H]5CCCN5C(=O)[C@@H](c5ccccc5)N(C)C)nc4c3)ccc2[nH]1)c1ccccc1 | 6390 |  |
| 0.012 | 0.049 | 3440 |  | COC(=O)N[C@@H](C(=O)N1CCC[C@H]1c1ncc(-c2ccc(-c3ccc(-c4cnc([C@@H]5CCCN5C(=O)[C@@H](c5ccccc5)N(C)C)[nH]4)cc3)cc2)[nH]1)c1ccccc1 | > 9700 |  |
| 0.004 | 14.9 | 523 |  | COC(=O)N[C@@H](C(=O)N1CCC[C@H]1c1ncc(-c2ccc(-c3ccc(-c4cnc([C@@H]5CCCN5C(=O)Cc5ccccc5)[nH]4)cc3)cc2)[nH]1)c1ccccc1 | > 10000 |  |
| 0.39 |  | 1220 | 1.6 | CN(C)[C@@H](C(=O)N1CCC[C@H]1C(=O)Nc1ccc(-c2cnc(-c3cccc(NC(=O)[C@@H]4CCCN4C(=O)[C@@H](c4ccccc4)N(C)C)c3)o2)cc1)c1ccccc1 | 5760 |  |
| > 1000 | > 1000 | 412 |  | O=C(Cc1ccccc1)N1CCC[C@H]1c1nc2cc(C#Cc3ccc4oc([C@@H]5CCCN5C(=O)Cc5ccccc5)nc4c3)ccc2o1 | > 10000 | Drug metabolism [16]: Active |
| 0.16 |  | 1160 | 738 | CN(C)[C@@H](C(=O)N1CCC[C@H]1C(=O)Nc1cccc(-c2cnc(-c3cccc(NC(=O)[C@@H]4CCCN4C(=O)[C@@H](c4ccccc4)N(C)C)c3)o2)c1)c1ccccc1 | 4730 |  |
| < 4.6 |  | > 10000 | > 100 | O=C(Cc1ccccc1)N1CCC[C@H]1c1nc2cc(C#Cc3ccc4nc([C@@H]5CCCN5C(=O)Cc5ccccc5)[nH]c4c3)ccc2[nH]1 | > 10000 |  |
| 677 |  | 1570 | 568 | CN(C)[C@@H](C(=O)N1CCC[C@H]1C(=O)Nc1ccc(-c2cnc(-c3ccc(NC(=O)[C@@H]4CCCN4C(=O)[C@@H](c4ccccc4)N(C)C)cc3)o2)cc1)c1ccccc1 | 6010 |  |
| 0.33 |  | 596 | 283 | O=C(Cc1ccccc1)N1CCC[C@H]1c1ncc(-c2ccc(-c3ccc(-c4cnc([C@@H]5CCCN5C(=O)Cc5ccccc5)[nH]4)cc3)cc2)[nH]1 | > 10000 |  |
